Counter-ions that a name gives are not always drawn.
Legend:
various plant species = assay: post-emergence herbicidal activity, overall comparison; assay type: in vivo; details: for herbicidal activity compared with the related amine (IPA) salt: post-emergence, Tables II and III
Text: (§1) The spray, a water solution containing active ingredient and a surfactant is applied to the plants in different sets of pans at several rates (kilogram per dunam) of active ingredient. The treated plants are placed in a greenhouse and the effects are observed and recorded after 4 days (table II) and after 2 weeks (table III). The post-emergence herbicidal activity index used in Table II and III is as follows: […]

Convolvulus arvensis [1] = assay: soil-applied (pre-emergence) test in planted trays, visual percent inhibition; assay type: in vivo; details: 336 h, read-out: % inhibition. B; for inhibition at 1000 g/ha: rate 1.0 KG/HECTARE
Method: (§2) Plastic trays were planted with green cynondon dactylon, convolvulus arvensis and sinapis arvensis and covered with a good grade of top soil. All materials were applied with a laboratory sprayer that delivered a volume of 187 1/hectare. The trays of soil were thereafter watered lightly to activate the aminotriazole salts. The experiment was conducted twice and each was arranged in a completely random design with three replications. Visual estimates of percent inhibition were made at two weeks after treatment.

sinapis arvensis = assay: as above; assay type: in vivo; details: Mutarda arvensis, 336 h, read-out: % inhibition. C; for inhibition at 1000 g/ha: rate 1.0 KG/HECTARE
Method: as §2

cynodon dactylon = assay: as above; assay type: in vivo; details: 336 h; for inhibition at 1000 g/ha: rate 1.0 KG/HECTARE
Method: as §2

[2] = solubility and crystallization of the salts in water; assay type: physicochemical; details: for solubility: at room temperature
Cyperus Rotundus = assay type: in vivo; details: after 2 weeks; spray to 21 day old plants; active ingredient mole/l: I 0.022, II 0.043, III 0.03, IV 0.043, V 0.043; also: key: 0: No injury; 1: Slight injury; 2: Moderate injury; 3: Severe injury; 4: Killed
Text: The spray, a water solution containing active ingredient and a surfactant is applied to the plants in different sets of pans at several rates (kilogram per dunam) of active ingredient. […] The post-emergence herbicidal activity index used in Table II and III is as follows: […]

Cynodon daotylon = assay: post-emergence herbicidal activity (spray, greenhouse); assay type: in vivo; details: after 2 weeks; spray to 21 day old plants; active ingredient mole/l: I 0.022, II 0.043, III 0.03, IV 0.043, V 0.043; also: key: 0: No injury; 1: Slight injury; 2: Moderate injury; 3: Severe injury; 4: Killed
Text: as §1

Polygonum equiseliforme = assay: as above; assay type: in vivo; details: after 2 weeks; spray to 21 day old plants; active ingredient mole/l: I 0.022, II 0.043, III 0.03, IV 0.043, V 0.043; also: key: 0: No injury; 1: Slight injury; 2: Moderate injury; 3: Severe injury; 4: Killed
Text: as §1

[3] = system: Agropyron repens (quackgrass); assay: as above; assay type: in vivo; details: after 2 weeks; spray to 21 day old plants; active ingredient mole/l: I 0.022, II 0.043, III 0.03, IV 0.043, V 0.043; also: key: 0: No injury; 1: Slight injury; 2: Moderate injury; 3: Severe injury; 4: Killed
Text: as §1

Inula Viscosa = assay: as above; assay type: in vivo; details: after 2 weeks; spray to 21 day old plants; active ingredient mole/l: I 0.022, II 0.043, III 0.03, IV 0.043, V 0.043
Text: as §1

Pennisetum clandestinum = assay: as above; assay type: in vivo; details: after 2 weeks; spray to 21 day old plants; active ingredient mole/l: I 0.022, II 0.043, III 0.03, IV 0.043, V 0.043
Text: as §1

Convolvulus arvensis [4] = assay: as above; assay type: in vivo; details: after 2 weeks; spray to 21 day old plants; active ingredient mole/l: I 0.022, II 0.043, III 0.03, IV 0.043, V 0.043
Text: as §1

Phragmites australis = assay: as above; assay type: in vivo; details: after 2 weeks; spray to 21 day old plants; active ingredient mole/l: I 0.022, II 0.043, III 0.03, IV 0.043, V 0.043
Text: as §1

Rubus Sanguineus = assay: as above; assay type: in vivo; details: after 2 weeks; spray to 21 day old plants; active ingredient mole/l: I 0.022, II 0.043, III 0.03, IV 0.043, V 0.043
Text: as §1

Avena sterilis = assay: as above; assay type: in vivo; details: after 2 weeks; spray to 21 day old plants; active ingredient mole/l: I 0.022, II 0.043, III 0.03, IV 0.043, V 0.043
Text: as §1

[5] = herbicidal activity when applied to the soil (statement in the text); assay type: in vivo; details: soil application
[6] = rate 0.5 KG/HECTARE, two weeks after treatment
[7] = rate 1.5 KG/HECTARE, two weeks after treatment

Structure (SMILES)	herbicidal activity compared with the related amine (IPA) salt (various plant species)	inhibition at 1000 g/ha (Convolvulus arvensis [1]; two weeks after treatment) [%]	inhibition at 1000 g/ha (sinapis arvensis; two weeks after treatment) [%]	inhibition at 1000 g/ha (cynodon dactylon; two weeks after treatment) [%]	post-emergence herbicidal activity index, TABLE III, I (Cyperus Rotundus)	post-emergence herbicidal activity index, TABLE III, F (Cynodon daotylon)	post-emergence herbicidal activity index, TABLE III, A (Polygonum equiseliforme)	post-emergence herbicidal activity index, TABLE III, J [3]	post-emergence herbicidal activity index, TABLE III, C (Inula Viscosa)	post-emergence herbicidal activity index, TABLE III, E (Pennisetum clandestinum)	post-emergence herbicidal activity index, TABLE III, G (Convolvulus arvensis [4])	post-emergence herbicidal activity index, TABLE III, D (Phragmites australis)	post-emergence herbicidal activity index, TABLE III, B (Rubus Sanguineus)	post-emergence herbicidal activity index, TABLE III, H (Avena sterilis)	further results
O=C(O)CNCP(=O)(O)O [I, Di(3-amino-1,2,4-triazole)NPMG salt]	at least the same result	90	90	80											antagonistic interaction (various plant species; applied to many species of weed, especially quackgrass): no antagonistic interaction; speed of phytotoxic action (knock down effect) (various plant species; first 4 days after application, compared with amine salt IV): faster phytotoxic action; inhibition at 500 g/ha (Convolvulus arvensis [1]; [6]): 80%; inhibition at 500 g/ha (sinapis arvensis; [6]): 60%; inhibition at 500 g/ha (cynodon dactylon; [6]): 45%; crystalization ([2]; at 0^oc): no crystalization; solubility ([2]; listed as NPMG-Diaminotriazole salt): at least 1000 g/1
O=C(O)CN(CC(=O)O)CP(=O)(O)O [II, Di(3-amino-1,2,4-triazole)NPMIDA salt]	far more superior activity				3	2	3	2	3	3	2	3	2	3	inhibition at 700 g/ha (Convolvulus arvensis [1]): 55%; inhibition at 1200 g/ha (Convolvulus arvensis [1]): 70%; inhibition at 700 g/ha (sinapis arvensis): 65%; inhibition at 1200 g/ha (sinapis arvensis): 80%; inhibition at 700 g/ha (cynodon dactylon; read-out: % inhibition. A): 40%; inhibition at 1200 g/ha (cynodon dactylon; read-out: % inhibition. A): 70%
CP(=O)(O)CCC(N)C(=O)O (stereo not drawn) [III, Di(3-amino-1,2,4-triazole)Phosphino-thricine salt.]		30	30	10	3	3	3	3	3	3	3	2	3	3	inhibition at 1500 g/ha (Convolvulus arvensis [1]; [7]): 50%; inhibition at 1500 g/ha (sinapis arvensis; [7]): 60%; inhibition at 1500 g/ha (cynodon dactylon; [7]): 20%
O=C(O)CNCP(=O)(O)O [IV, Mono(Isopropylamine)NPMG salt (ROUNDUP^(R)), reference compound]															herbicidal activity when applied to the soil [5]: little herbicidal activity; crystalization ([2]; at lower temperature (0-S^oc)): crystalization of the salt may occur; solubility ([2]; listed as NPMG.IPA): 480 g/1
O=C(O)CN(CC(=O)O)CP(=O)(O)O [V, Mono(Isopropylamine)NPMIDA salt, reference compound]					1	0	1	1	2	1	0	1	1	1	
